{"source": "patent US7056685B1", "about": "“Receptor ligands and methods of modulating receptors” (Amgen Inc., priority 2002, dated 2006)", "key": {"TGR164 [1]": {"molecular_target": "T1, TGR164 (Homo sapiens, UniProt Q96P68)", "T1 construct": "expressed in transfected cells; also 'various cell lines'", "assay": "Aequorin assay, TGR164", "format": "cell-based", "conditions": "for activation of TGR164 in Aequorin assay: FIGS. 7A and 7B"}, "TGR164 [2]": {"molecular_target": "T1, TGR164", "assay": "Inositol phosphate accumulation assay, TGR164", "format": "cell-based"}, "TGR18 [3]": {"molecular_target": "T2, TGR18 (Homo sapiens, UniProt Q9BXA5)", "T2 sequence (Q9BXA5 with tags, fused parts or gaps limits assumed)": "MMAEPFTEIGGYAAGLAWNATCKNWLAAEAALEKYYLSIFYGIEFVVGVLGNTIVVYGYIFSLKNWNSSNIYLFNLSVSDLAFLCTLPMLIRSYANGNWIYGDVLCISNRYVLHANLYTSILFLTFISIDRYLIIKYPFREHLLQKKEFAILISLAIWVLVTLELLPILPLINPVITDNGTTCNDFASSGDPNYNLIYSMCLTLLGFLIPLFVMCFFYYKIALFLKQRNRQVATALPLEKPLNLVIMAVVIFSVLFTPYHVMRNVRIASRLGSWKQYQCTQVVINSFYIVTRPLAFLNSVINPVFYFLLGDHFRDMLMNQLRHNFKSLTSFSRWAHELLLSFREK", "assay": "FLIPR intracellular calcium assay, 293 cells stably expressing TGR18", "format": "cell-based", "design": "expressed in transfected cells; transient for CRE-luciferase", "conditions": "for activation of TGR18 in FLIPR assay: FIG. 6C", "description": "Mobilization of intracellular calcium in response to various ligands was also evaluated using a FLIPR assay. In this assay, 293 cells stably expressing TGR18 were seeded into 384-well plates and incubated at 37° C. overnight. The growth medium was then aspirated and replaced with 50 μl loading medium (FLIPR no-wash kit, Molecular Devices) and incubated at 37° C. for 1 hour. The cells were placed in a fluorometric imaging plate reader (FLIPR), and changes in cellular fluorescence were recorded after the addition of 25 μl of various ligands diluted in FLIPR buffer (FLIPR no-wash kit, Molecular Devices). Analogs of succinic acid that activated TGR18 include succinic acid, maleic acid, oxalacetic acid, methylmalonic acid and itaconic acid (FIG. 6C)."}, "GPR43": {"molecular_target": "T3, GPR43 (Homo sapiens, UniProt O15552)", "T3 sequence (O15552 1-330)": "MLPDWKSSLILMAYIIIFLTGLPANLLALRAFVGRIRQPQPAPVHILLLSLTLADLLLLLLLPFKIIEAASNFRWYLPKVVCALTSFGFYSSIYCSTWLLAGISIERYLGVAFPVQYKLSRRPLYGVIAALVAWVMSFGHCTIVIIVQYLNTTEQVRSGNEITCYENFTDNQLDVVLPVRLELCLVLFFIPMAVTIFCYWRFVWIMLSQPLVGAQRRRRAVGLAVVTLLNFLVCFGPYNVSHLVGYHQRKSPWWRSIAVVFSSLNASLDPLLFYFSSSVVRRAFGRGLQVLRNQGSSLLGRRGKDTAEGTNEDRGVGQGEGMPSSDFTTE", "assay": "GPR43 activation by fatty acids (FIG. 2)", "format": "cell-based", "conditions": "for concentration at which GPR43 is activated: FIG. 2", "source_text": "An activated or inhibited G-protein will in turn alter the properties of downstream effectors such as proteins, enzymes, and channels. The classic examples are the activation of cGMP phosphodiesterase by transducin in the visual system, adenylate cyclase by the stimulatory G-protein, phospholipase C by Gq and other cognate G proteins, and modulation of diverse channels by Gi and other G proteins. Downstream consequences such as generation of diacyl glycerol and IP3 by phospholipase C, and in turn, for calcium mobilization e.g., by IP3 (further discussed below) can also be examined. Thus, modulators can be evaluated for the ability to stimulate or inhibit ligand-mediated downstream effects. […] Candidate modulators may be assessed for the ability to inhibit inositol phosphate accumulation and/or calcium mobilization induced by the natural ligand, e.g., β-alanine (TGR2), a 2–3 carbon chain fatty acid (GPR43), a medium or long chain fatty acid (GPR40), succinic acid (TGR18), or a-ketoglutaric acid (TGR164).\nA battery of fatty acids were tested for the ability to activate GPR43."}, "TGR18 [4]": {"molecular_target": "T2, TGR18", "assay": "TGR18 ligand activity, assay not specified (introduction)", "format": "cell-based", "design": "expressed in transfected cells; transient for CRE-luciferase"}, "40 other orphan GPCRs": {"system": "40 other orphan GPCRs", "conditions": "at 10 μM"}, "TGR2 [5]": {"molecular_target": "T4, TGR2 (Homo sapiens, UniProt Q8TDS7)", "T4 sequence (Q8TDS7 whole entry)": "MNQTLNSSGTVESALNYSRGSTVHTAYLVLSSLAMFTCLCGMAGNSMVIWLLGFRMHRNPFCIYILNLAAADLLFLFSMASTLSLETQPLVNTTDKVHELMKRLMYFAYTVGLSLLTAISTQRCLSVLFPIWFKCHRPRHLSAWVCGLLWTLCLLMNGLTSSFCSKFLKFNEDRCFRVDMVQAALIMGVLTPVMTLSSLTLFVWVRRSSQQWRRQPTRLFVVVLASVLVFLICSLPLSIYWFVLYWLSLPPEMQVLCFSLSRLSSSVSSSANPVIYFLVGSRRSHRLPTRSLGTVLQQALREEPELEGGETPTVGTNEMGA"}, "mMrgD": {"molecular_target": "mMrgD (Mus musculus, UniProt Q91ZB8)", "sequence (Q91ZB8 whole entry)": "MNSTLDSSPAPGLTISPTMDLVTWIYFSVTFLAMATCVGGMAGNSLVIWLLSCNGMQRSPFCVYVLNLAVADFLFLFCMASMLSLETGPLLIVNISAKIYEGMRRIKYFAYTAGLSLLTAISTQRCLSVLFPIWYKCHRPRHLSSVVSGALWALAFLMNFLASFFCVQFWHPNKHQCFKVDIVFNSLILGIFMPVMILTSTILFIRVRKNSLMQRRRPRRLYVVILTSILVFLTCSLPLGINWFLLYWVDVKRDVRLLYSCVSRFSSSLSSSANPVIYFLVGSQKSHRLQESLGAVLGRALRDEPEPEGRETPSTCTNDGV"}, "TGR2 [6]": {"molecular_target": "T4, TGR2", "assay": "Aequorin assay, CHO cells transiently transfected with TGR2", "format": "cell-based", "design": "expressed in transfected cells; host or cells: CHO cells, transient"}, "TGR18 [7]": {"molecular_target": "T2, TGR18", "assay": "Inositol phosphate accumulation assay, 293 cells stably expressing TGR18", "format": "cell-based", "design": "expressed in transfected cells; transient for CRE-luciferase", "conditions": "45 minutes stimulation", "description": "The ability of various ligands to increase inositol phosphate was also assessed. For this analysis, 293 cells stably expression TGR18 were incubated in inositol-free DMEM/10% dialyzed FCS/1 μCi/ml ^3H-inositol for 16 hours. Following incubation 10 mM LiCi was added to the cells for 15 minutes. Cells were then stimulated with various ligands for 45 minutes and extracted with ice-cold 20 mM formic acid. H3-inositol phosphate was collected on Dowex ion-exchange column (formate form) and radioactivity recorded by Topcount scintillation counter."}, "Human TGR18": {"molecular_target": "Human TGR18 (Homo sapiens, UniProt Q9BXA5)", "conditions": "FIG. 6A", "description": "(§1) In order to examine the ability of a compound to activate TGR18, CHO cells were transiently transfected with 10 μg of the GPCR and 10 μg Aequorin reporter gene in a 150 mm dish. As a negative control, the same amount of empty vector and the Aequorin reporter were cotransfected into CHO cells. After 24 hours, cells were harvested and resuspended in Aequorin buffer (Hank's buffered saline with 20 mM Hepes, pH7.6 and 0.1% BSA) containing 1 μg/ml coelenterazine f and incubated at room temperature for a further 2 hours. The Aequorin luminescence was recorded on Microlumat after injecting 100 μl of cells into 100 μl of ligand prepared in Aequorin buffer."}, "mouse TGR18": {"molecular_target": "mouse TGR18 (Mus musculus, UniProt Q99MT6)", "sequence (Q99MT6 whole entry)": "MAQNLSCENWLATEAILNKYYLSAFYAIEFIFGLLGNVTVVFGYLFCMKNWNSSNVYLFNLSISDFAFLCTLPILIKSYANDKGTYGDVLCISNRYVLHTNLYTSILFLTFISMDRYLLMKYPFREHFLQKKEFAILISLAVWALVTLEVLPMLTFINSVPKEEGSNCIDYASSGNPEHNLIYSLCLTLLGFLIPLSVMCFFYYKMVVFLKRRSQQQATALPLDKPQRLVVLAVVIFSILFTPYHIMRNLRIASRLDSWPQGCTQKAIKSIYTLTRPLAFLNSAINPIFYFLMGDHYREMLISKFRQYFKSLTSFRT", "conditions": "FIG. 6A", "description": "as §1"}, "rat TGR18": {"molecular_target": "rat TGR18 (Rattus norvegicus, UniProt Q6IYF9)", "sequence (Q6IYF9 whole entry)": "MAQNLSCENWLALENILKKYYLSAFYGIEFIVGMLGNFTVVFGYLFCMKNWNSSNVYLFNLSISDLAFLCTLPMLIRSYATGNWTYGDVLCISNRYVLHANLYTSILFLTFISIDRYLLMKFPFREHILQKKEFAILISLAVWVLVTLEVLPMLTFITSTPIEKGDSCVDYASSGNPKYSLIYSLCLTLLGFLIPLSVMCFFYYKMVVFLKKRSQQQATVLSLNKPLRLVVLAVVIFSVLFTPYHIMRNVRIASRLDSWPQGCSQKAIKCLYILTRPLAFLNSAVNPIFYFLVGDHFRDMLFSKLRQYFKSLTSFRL", "conditions": "FIG. 6A", "description": "as §1"}, "thirty other GPCRs": {"system": "thirty other GPCRs", "conditions": "at 100 μM", "description": "as §1"}, "TGR18 [8]": {"molecular_target": "T2, TGR18", "conditions": "293 cells; 6 hours", "description": "The ability of a ligand to induce TGR18-mediated activation of a CRE-luciferase reporter was also evaluated. For this assay, 293 cells were transiently transfected with CRE-luciferase reporter, tk-renila luciferase reporter and TGR18 plasmid. Succinic acid was then added to the cell culture supernatants and incubated for a further 6 hours. The luminescence were recorded on CLIPR after cell lysis as illustrated in Dual-luciferase assay kit (Promega)."}, "GPR77": {"molecular_target": "T5, GPR77 (Homo sapiens, UniProt Q9P296)", "T5 construct": "expressed in transfected cells", "T5 sequence (Q9P296 whole entry)": "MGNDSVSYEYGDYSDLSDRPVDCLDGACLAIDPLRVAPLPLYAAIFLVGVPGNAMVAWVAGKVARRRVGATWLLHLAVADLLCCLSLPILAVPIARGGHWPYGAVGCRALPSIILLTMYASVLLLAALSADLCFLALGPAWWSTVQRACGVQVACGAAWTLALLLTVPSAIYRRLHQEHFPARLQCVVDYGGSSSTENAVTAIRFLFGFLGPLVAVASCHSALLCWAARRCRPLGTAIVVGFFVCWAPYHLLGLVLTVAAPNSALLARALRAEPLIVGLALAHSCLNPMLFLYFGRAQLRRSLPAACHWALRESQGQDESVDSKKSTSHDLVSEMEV", "assay": "Competitive binding assay, membrane binding format, cells transiently transfected with GPR77", "source_text": "GPR77 was transiently transfected into cells."}}, "note": "“Also recorded” adds a separate entry of the source."}
{"compound": "O=C(O)CCC(=O)C(=O)O", "note": "[α-ketoglutaric acid]", "values": [{"measurement": "activation of TGR164 in Aequorin assay", "setting": "TGR164 [1]", "value": "TGR164 ligand"}, {"measurement": "activation of TGR164 in Aequorin assays in multiple cell lines", "setting": "TGR164 [1]; multiple cell lines", "value": "activates"}, {"measurement": "inositol phosphate accumulation, TGR164", "setting": "TGR164 [2]", "value": "observed"}]}
{"compound": "CC(C(=O)O)C(=O)O", "note": "[methylmalonic acid]", "values": [{"measurement": "activation of TGR18 in FLIPR assay", "setting": "TGR18 [3]", "value": "activated"}]}
{"compound": "CC(=O)O", "note": "[acetate]", "values": [{"measurement": "concentration at which GPR43 is activated", "setting": "GPR43", "value": "about 140 μM"}]}
{"compound": "O=C1CCC(=O)O1", "note": "[succinic anhydride]", "values": [{"measurement": "ligand for / activation of TGR18", "setting": "TGR18 [4]", "value": "ligands for TGR18"}]}
{"compound": "C=C(CC(=O)O)C(=O)O", "note": "[itaconic acid]", "values": [{"measurement": "activation of TGR164 in Aequorin assay", "setting": "TGR164 [1]", "value": "activated"}, {"measurement": "inositol phosphate accumulation, TGR164", "setting": "TGR164 [2]", "value": "observed"}, {"measurement": "activation of TGR18 in FLIPR assay", "setting": "TGR18 [3]", "value": "activated"}]}
{"compound": "NCCC(=O)O", "note": "[β-alanine]", "values": [{"measurement": "activation of 40 other orphan GPCRs", "setting": "40 other orphan GPCRs", "value": "did not activate"}, {"measurement": "activation of TGR2 in inositol phosphate accumulation assay", "setting": "TGR2 [5]", "value": "activated"}, {"measurement": "activation of mouse ortholog mMrgD in Aequorin assay", "setting": "mMrgD", "value": "specifically activated"}, {"measurement": "EC50", "setting": "TGR2 [6]; CHO cells transiently transfected with TGR2, FIG. 1", "value": 9.1, "unit": "µM"}, {"measurement": "activation of TGR2 (increase in intracellular calcium), library screen", "setting": "TGR2 [6]; at 10 μM", "value": "positive hit"}]}
{"compound": "O=C(O)/C=C/C(=O)O", "note": "[fumaric acid]", "values": [{"measurement": "increase of inositol phosphate levels, TGR18", "setting": "TGR18 [7]", "value": "did not"}]}
{"compound": "CCC(=O)O", "note": "[propionate]", "values": [{"measurement": "concentration at which GPR43 is activated", "setting": "GPR43", "value": "about 140 μM"}]}
{"compound": "CCCCCCCC(=O)O", "note": "[octanoate]", "values": [{"measurement": "activation of GPR43", "setting": "GPR43", "value": "do not activate"}]}
{"compound": "O=C(O)CCC(=O)O", "note": "[succinic acid]", "values": [{"measurement": "activation of human TGR18 in Aequorin assay", "setting": "Human TGR18", "value": "activated"}, {"measurement": "activation of mouse TGR18 in Aequorin assay", "setting": "mouse TGR18", "value": "activated"}, {"measurement": "activation of rat TGR18 in Aequorin assay", "setting": "rat TGR18", "value": "activated"}, {"measurement": "activation of thirty other GPCRs", "setting": "thirty other GPCRs", "value": "does not activate"}, {"measurement": "TGR18-mediated activation of CRE-luciferase reporter", "setting": "TGR18 [8]", "value": "induced"}, {"measurement": "EC50", "setting": "TGR18 [3]; 293 cells stably expressing TGR18, FIG. 6B, read-out: EC50 of TGR18 activation in FLIPR assay", "value": "~27", "unit": "µM"}, {"measurement": "activation of TGR18 in FLIPR assay", "setting": "TGR18 [3]", "value": "activated"}, {"measurement": "increase of inositol phosphate levels, TGR18", "setting": "TGR18 [7]", "value": "increased inositol phosphate levels"}]}
{"compound": "O=C(O)/C=C\\C(=O)O", "note": "[maleic acid]", "values": [{"measurement": "activation of TGR18 in FLIPR assay", "setting": "TGR18 [3]", "value": "activated"}]}
{"compound": "CCCCC(=O)O", "note": "[pentanoate]", "values": [{"measurement": "activation of GPR43", "setting": "GPR43", "value": "do not activate"}]}
{"compound": "O=C(O)CC(=O)C(=O)O", "note": "[oxalacetic acid]", "values": [{"measurement": "activation of TGR18 in FLIPR assay", "setting": "TGR18 [3]", "value": "activated"}]}
{"compound": "ASP: Acylation stimulating protein, identical to the desarginated form of complement C3a, i.e., C3adesArg", "values": [{"measurement": "binding to GPR77, competition with C5a and C3a", "setting": "GPR77", "value": "shown to bind to GPR77; also recorded: competed with C5a and C3a"}]}
{"compound": "CCCCCCC(=O)O", "note": "[heptanoeate]", "values": [{"measurement": "activation of GPR43", "setting": "GPR43", "value": "do not activate"}]}
